Publication PMC8215932, “Novel neuroprotective peptides in the venom of the solitary scoliid wasp Scolia decorata ventralis” (The Journal of Venomous Animals and Toxins Including …, 2021)
Where no end group is shown, it is not given here.

What was measured:
PC12 cells [1] = tested on: PC12 cells
Procedure: (§1) Neuronal cell line (PC12) was used to evaluate the neuroprotective effects of α-scoliidine and β-scoliidine against oxidative stress in vitro. PC12 cell is derived from a transplantable rat pheochromocytoma and was purchased from American Type Culture Collection (USA) (ATCC® CRL-1721™). Cells were routinely cultured in DMEM medium (Sigma-Aldrich) supplemented with 10% fetal bovine serum (Gibco, Waltham, USA), 1% (v/v) of 10000 U/mL penicillin, 10 mg/mL streptomycin and 25 μg/mL amphotericin B solution (Sigma-Aldrich) at 37 °C in an atmosphere of 5% CO2 and 95% air (Water Jacketed CO2 Incubator, Thermo Scientific). At 80% confluence, cells were passaged using trypsin-EDTA solution [0.05% (m/v) trypsin and 0.02% (m/v) EDTA]. Culture medium was replaced every 2-3 days.
PC12 cells were seeded into 96-well plates (Nest Biotechnology, Rahway, USA), at 2.0 × 10^4 cells per well, and were treated with different concentrations (0.1 to 10 µM) of α-scoliidine and β-scoliidine in a final volume of 0.15 mL. The plate was incubated at 37°C for 3, 6, 12, 24, and 48 h. For each concentration and time course studied, there were control and DMSO groups, which represent untreated cells (only one equal volumes of the culture medium) and treated with DMSO 2.5% (v/v) diluted in the medium culture, respectively. The cytotoxic effects of both compounds were determined using crystal violet assay, according to Feoktistova et al.. Briefly, the medium was aspirated, and the cells were washed twice in a gentle stream of tap water. Then, 50 μL of a 0.5 % (v/v) crystal violet staining solution was added to each well, and incubated for 20 min at room temperature on a bench rocker with a frequency of 20 oscillations per min. The plate was washed four times and air-dried for at least 2 h at room temperature. Subsequently, methanol (200 μL) was added to each well, and the plate was incubated with its lid on for 20 min at room temperature on a bench rocker with a frequency of 20 oscillations per min. After, the absorbance of the sample was measured at 570 nm using a SpectraMax reader (Molecular Devices, CA, USA). The cytotoxicity was expressed as percentage (%) of cell integrity relative to control cells (100%).
(§2) All data are presented as mean ± SD of three independent experiments (n = 3) in triplicate. Data were analyzed using one-way analysis of variance (ANOVA) for between-groups comparisons followed by a Tukey’s post-hoc test for multiple comparisons. Values of p < 0.05 were considered to be statistically significant. The analyses were performed using GraphPad Prism 6.0 software (GraphPad Software, Inc., La Jolla, CA).

PC12 cells [2] = conditions: cited from earlier work
PC12 cells [3] = tested on: PC12 cells; remark: listed apart in the source
Procedure: as §1
PC12 cells were seeded at 2 x 10^4 cells/well in a 96-well plate (Nest Biotechnology, Rahway, USA) for 24 h, and then two neuroprotective assays were evaluated: 1) Cells were pre-treated with α-scoliidine or β-scoliidine (1 µM) at 37°C for 22 h and, after the mediums were replaced containing the peptide and H2O2 (0.6 mM) and incubated for 2 h more; 2) Cells were pre-treated with α-scoliidine or β-scoliidine (1 µM) for 4 h at 37°C and, after the mediums were replaced containing peptide and H2O2 (0.6 mM) and incubated for 20 h more. The control, α-scoliidine and β-scoliidine groups (without H2O2) were incubated under the same conditions. Next, all experimental groups were analyzed by the crystal violet assay.
as §2

PC12 cells [4] = format: cell-based, rat
Procedure: Culture medium was replaced every 2-3 days.
The effects of α-scoliidine or β-scoliidine on the mitochondrial metabolism of PC12 cells were estimated using 3-(4,5-dimethylthiazol-2-yl)-2,5-diphenyltetrazolium bromide (MTT) reduction assay, as previously described. […] In addition, to the experimental groups mentioned above, two more groups were included in which cells were treated with L-N^Ω-Nitroarginine methyl ester (L-Name; 1 mM) and Bradykinin (Bk; 0.3 µM) in the presence or absence of H2O2. After treatments, cells were treated with 0.5 mg/mL MTT in the same medium culture for 3 h at 37°C. The resulting formazan produced by both cell treatments were dissolved by addition of DMSO. The amount of MTT formazan dissolved in DMSO was determined by measuring absorbance with a microplate reader (Spectramax M3 multi-mode, Molecular Devices, CA, EUA) at 540 nm. Data were expressed as the mean ± SD of mitochondrial metabolism percentage in relation to the control.

cells = conditions: cited from earlier work
Source text: The phenomenon of synergistic toxicity of H2O2 effects when two agents are used together, and efficiently potentiate cell damage, has been reported in the literature. Of the several examples of H2O2 toxicity potentiation by oth ...

[5] = tested on: human neuroblast-like cell line SH-SY5Y; conditions: cited from earlier work
Source text: (§3) BPP-11e (<[…]) and BPP-AP (<[…]), for example, ...

human neural stem cells = conditions: cited from earlier work
Source text: as §3

ACE = experiment: Cleavage by ACE (stability test, HPLC); format: in vitro ADME, rabbit; conditions: peptide 30 µM, 37°C, four hours, RP-HPLC, UV 214 nm; for metabolised at 4 h, 30 µM: rabbit, ACE
Source text: All chemicals used in the present study were of analytical reagent grade (purity higher than 95%) and purchased from Calbiochem-Novabiochem Corporation (USA), Gibco BRL (New York, USA), Fluka Chemical Corp. (Buchs, Switzerland) or Sigma-Aldrich Corporation (MO, USA). The ACE I from rabbit lung (EC 3.4.15.1) from Sigma-Aldrich. For the reverse phase chromatography, acetonitrile and TFA were acquired from J.T. Baker. The FRET substrate Abz-FRK(Dnp)P-OH (used by ACE-I assays) were provided by Prof. Adriana Carmona, from the Department of Biophysics of UNIFESP-EPM, São Paulo, Brazil.
Both peptides (30 µM) were incubated separately with ACE ([…]) at 37°C for four hours. Samples containing only the synthetic peptides were used as negative control. After incubation, samples were analyzed by reverse phase chromatography on HPLC (Prominence, Shimadzu), using a Shim-pack VP-ODS C-18 column (4.6× 150 mm). Solvents used were 0.1% (v/v) TFA in water (solvent A), and acetonitrile plus solvent A (9:1) as solvent B. Separations were performed at a flow rate of 1 mL/min and a 10-60% gradient of solvent B over 20 min. In all cases, elution was followed by the measurement of ultraviolet absorption (214 nm).

human neprilysin (NEP) = experiment: Cleavage by NEP; format: in vitro ADME; conditions: isolated human neprilysin (NEP)
Source text: Table 8 Hydrolyses of α-scoliidine and β-scoliidine by human neprilysin (NEP) and angiotensin-converting enzyme (ACE). | column: Cleavage (%)

[6] = tested on: nicotinic acetylcholine receptor (nAChR); conditions: prey central nervous system; cited from earlier work
Source text: The first study of solitary wasp venoms was reported in 1987. Two kinins, threonine^6-bradykinin (Thr^6-BK) and megascoliakinin, were isolated and characterized from the venoms of the European scoliid wasps Colpa interrupta and Megascolia flavifrons, respectively. […] Thr^6-BK may be a common component of solitary scoliid wasp venoms, since we identified this peptide as a major component in three scoliid wasp venoms found in Japan [[1 ...

[7] = 0.1 to 10 µM, n = 3 in triplicate

C[S+](C)[O-] [DMSO, dimethyl sulfoxide]
Cell integrity after 24 and 48 h (PC12 cells [1]; 24 and 48 h, compared to the control group, peptides 0.1 to 10 µM, DMSO 2.5% (v/v), n = 3 in triplicate): decreased the cell integrity after 24 and 48 h compared to the control group

Cc1cccc([C@H](C)c2cnc[nH]2)c1C [Dexmedetomidine]
Proliferation in a stress condition (PC12 cells [2]): dose-dependent restored impaired proliferation of PC12 cells in a stress condition | Protection from ROS-induced cytotoxicity (PC12 cells [2]): protected PC12 cells from ROS-induced cytotoxicity | p21 and cyclin D1 expression (PC12 cells [2]): decreased expression of tumor suppressor protein p21 and increased expression of cell cycle-related cyclin D1

OO [H2O2, hydrogen peroxide]
H2O2 concentration above which cytotoxic (PC12 cells [3]): greater than 0.5 mM | H2O2 cytotoxicity dose response, chronic (PC12 cells [3]): also showed a dose-response effect | Reduction of cell viability by H2O2 (PC12 cells [3]): ~ 60% | Metabolic viability (PC12 cells [4]): 32.23 ± 0.96%

COC(=O)[C@@H](N)CCCNC(N)=N[N+](=O)[O-] [L-Name, L-N^Ω-Nitroarginine methyl ester]
Metabolic viability under H2O2 (PC12 cells [4]; pre-treatment 4 h, then + H2O2 0.6 mM 20 h, peptides 1 µM, L-Name 1 mM, Bk 0.30 μM, MTT): prevented the reduction of metabolic viability

O=C1O[C@H]([C@@H](O)CO)C(O)=C1O [ascorbic acid]
Effect on intracellular oxidative potential of H2O2 (cells): enhancement of the intracellular oxidative potential of H2O2

<EARPPHPPIPP [BPP-11e]
Neuroprotection against H2O2-induced oxidative stress [5]: not good neuroprotective peptides against the H2O2-induced oxidative stress

<EARPPHPPIPPAP [BPP-AP]
Neuroprotection against H2O2-induced oxidative stress [5]: not good neuroprotective peptides against the H2O2-induced oxidative stress

Aβ 42: amyloid-β peptide (Aβ) isoform, Aβ 42
Effect on cell proliferation (human neural stem cells): promotes cell proliferation of human neural stem cells in a concentration-dependent manner

DYVTVKGFSPLR [α-scoliidine]
Cleavage by ACE (ACE): not cleaved by the metallopeptidase | metabolised at 4 h, 30 µM (ACE): < 0.01% | metabolised (human neprilysin (NEP)): < 0.01% | Cytotoxicity, cell integrity vs control or DMSO (PC12 cells [1]; 0.1 to 10 µM, 3, 6, 12, 24, and 48 h, mean ± SD of three independent experiments in triplicate): did not show any significant cytotoxicity (p > 0.05) in all dose concentrations, and at the times tested | Cell integrity / neurotoxicity at 6 h (PC12 cells [1]; [7]): showed a tendency for neurotoxicity at 6 h of treatment

DYVTVKGFSPLRKA [β-scoliidine]
Cleavage by ACE (ACE): not cleaved by the metallopeptidase | metabolised at 4 h, 30 µM (ACE): < 0.01% | metabolised (human neprilysin (NEP)): < 0.01% | Cell integrity / neurotoxicity at 6 h (PC12 cells [1]; [7]): decreased cell integrity after 6 h of treatment in all concentration tested

RPPGFTPFR [Thr^6-BK, threonine^6-bradykinin]
Block of nAChR synaptic transmission [6]: irreversibly block the synaptic transmission of the nicotinic acetylcholine receptor (nAChR) in the prey central nervous system

RPPGFTPFRKA [megascoliakinin]
Block of nAChR synaptic transmission [6]: irreversibly block the synaptic transmission of the nicotinic acetylcholine receptor (nAChR) in the prey central nervous system
